Measurements as given in the METLIN SMRT retention time set (Domingo-Almenara et al. 2019).

Assay: gradient 5% acetonitrile 3 min, to 50% in 2 min, to 85% in 15 min, held 3 min, 100 µL/min
Conditions: column: Zorbax Extend-C18 2.1 x 50 mm; eluents: water / acetonitrile, 0.1% formic acid
Outline: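 Data were gathered over 3 months by HPLC coupled to a quadrupole time-of-flight mass spectrometer, operated in positive and negative ionization mode. Mixtures of ~100 pure standards ran on a Zorbax Extend-C18 column (2.1 × 50 mm, 1.8 μm) at 100 μL/min, with water and acetonitrile each containing 0.1% formic acid and dead and dwell volumes of 40 μL and 900 μL. Retention time was read from adduct peaks picked by computer and checked manually.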

Which RP-LC retention time does the source give for `CC1(C(=O)NC2CCCC2)CN(S(=O)(=O)c2ccccc2)CC(=O)N1c1ccc(Cl)cc1` (stereo unspecified) here?
The RP-LC retention time was 950 s.

With `NC(=O)C1CCN(C(=O)c2cncc(NS(=O)(=O)c3ccc(F)cc3)c2)CC1` as the compound, how does the RP-LC retention time read?
The RP-LC retention time was 606 s.

For `Cc1ccc(S(=O)(=O)N2C[C@@H](F)C[C@H]2C(=O)N2CCc3ccccc3C2)cc1`, which RP-LC retention time is on record?
Its RP-LC retention time is 923 s.

For `Cc1cc(CNC(=O)c2cc3ccccc3o2)c(C)o1`, which RP-LC retention time is on record?
Its RP-LC retention time is 852 s.

With `Cc1ccccc1CNC(=O)CN1CCN(Cc2cccc(Cl)c2)C1=O` as the compound, how does the RP-LC retention time read?
The RP-LC retention time was 880 s.

Which RP-LC retention time does the source give for `COc1ccc(-c2noc(-c3nnn4c3COC(c3ccc(Cl)cc3)C4)n2)c(OC)c1` (stereo unspecified) here?
The RP-LC retention time was 1140 s.

With `COc1ccc(CNC(=O)C2CN(S(=O)(=O)C3CC3)CC23CCCCC3)c(OC)c1` (stereo unspecified) as the compound, how does the RP-LC retention time read?
The RP-LC retention time was 815 s.

With `O=C(CCCn1c(=O)c2cccn2c2ccccc21)NCc1ccccn1` as the compound, how does the RP-LC retention time read?
The RP-LC retention time was 621 s.

With `Cc1nc(-c2cc(S(=O)(=O)N3CCC(C(=O)N4CCCCCC4)CC3)c(C)s2)no1` as the compound, how does the RP-LC retention time read?
Its RP-LC retention time is 919 s.

For `COc1ccc(-c2nnc(-c3cccc(S(=O)(=O)N(C)C)c3)o2)cc1`, which RP-LC retention time is on record?
The RP-LC retention time was 908 s.

For `COc1ccc(Cl)cc1NC(=O)N(C)CC1CCOCC1`, which RP-LC retention time is on record?
Its RP-LC retention time is 816 s.

For `CCCCN(C)C(=O)Cn1nc2c3cc(-c4cc(C)ccc4C)nn3ccn2c1=O`, which RP-LC retention time is on record?
Its RP-LC retention time is 973 s.

Which RP-LC retention time does the source give for `Cc1ccc(C)c(S(=O)(=O)NCc2ccc(C(=O)N3CCCCC3C)cc2)c1` (stereo unspecified) here?
Its RP-LC retention time is 961 s.

For `Cc1ccc(Oc2nccnc2N2CCCC(C(=O)Nc3ccc(N4CCOCC4)cc3)C2)cc1` (stereo unspecified), which RP-LC retention time is on record?
The RP-LC retention time was 956 s.

With `O=C(NC1CCCCC1)C1CCN(Cc2noc(-c3ccc(F)cc3)n2)CC1` as the compound, how does the RP-LC retention time read?
The RP-LC retention time was 665 s.

With `CCN(CC)S(=O)(=O)c1ccc(NC(=O)N2CCCC(C(=O)Nc3cccc(Cl)c3)C2)s1` (stereo unspecified) as the compound, how does the RP-LC retention time read?
Its RP-LC retention time is 996 s.

For `CNc1nc(Nc2cccc(OC)c2)nc2ccccc12`, which RP-LC retention time is on record?
The RP-LC retention time was 650 s.

With `O=c1n(Cc2ccc(F)cc2)nc2c(-c3nc(-c4cccc(F)c4)no3)cccn12` as the compound, how does the RP-LC retention time read?
The RP-LC retention time was 971 s.

With `COc1ccc(C)cc1NC(=O)Cn1nc2nc(Nc3ccc(C)cc3)ccn2c1=O` as the compound, how does the RP-LC retention time read?
Its RP-LC retention time is 862 s.

Which RP-LC retention time does the source give for `CC(CC(=O)NCCC1=CCCCC1)Cc1nnc2c(=O)n(-c3cccc(F)c3)ccn12` (stereo unspecified) here?
The RP-LC retention time was 813 s.

For `Cn1c(=O)n(CC(=O)O)c(=O)c2c1nc1n2CCN1c1ccc(F)cc1`, which RP-LC retention time is on record?
The RP-LC retention time was 704 s.

For `O=C(Cn1nc2c(cc1=O)CCCCC2)Nc1nc(-c2cccnc2)cs1`, which RP-LC retention time is on record?
Its RP-LC retention time is 646 s.

Which RP-LC retention time does the source give for `Fc1cc(F)c2c(c1)C1C=CCC1C(c1cccnc1)N2` (stereo unspecified) here?
The RP-LC retention time was 706 s.

With `O=C(NCc1[nH]nc2ccccc12)c1ccc(Cl)cc1` as the compound, how does the RP-LC retention time read?
Its RP-LC retention time is 779 s.

With `COCCNC(=O)N1CCCN(C2=NS(=O)(=O)C(c3cccc(Cl)c3)=C2C)CC1` as the compound, how does the RP-LC retention time read?
Its RP-LC retention time is 706 s.

Which RP-LC retention time does the source give for `CCCNS(=O)(=O)c1cc(-c2[nH]ncc2C(=O)N(C)C)oc1C` here?
Its RP-LC retention time is 608 s.

For `CN(C)c1ccc(N2C=C(C(=O)N3CCOCC3)S(=O)(=O)c3ccc(Cl)cc32)cc1`, which RP-LC retention time is on record?
The RP-LC retention time was 875 s.

For `O=C(c1nnc(-c2ccc(S(=O)(=O)N3CCCCC3)cc2)o1)N1CCCCCC1`, which RP-LC retention time is on record?
The RP-LC retention time was 1010 s.

Which RP-LC retention time does the source give for `CCOc1ccccc1NC(=O)N1C[C@@H]2CN(S(=O)(=O)c3ccc(C)cc3)C[C@H](C1)O2` here?
The RP-LC retention time was 915 s.

Which RP-LC retention time does the source give for `COc1ccccc1-c1nnc(SCC(=O)N2CCc3ccccc32)o1` here?
The RP-LC retention time was 839 s.

Which RP-LC retention time does the source give for `COc1ccc2c(c1)C1(CCN(C(=O)NCc3ccc(F)cc3)C1)C(=O)N2C` (stereo unspecified) here?
Its RP-LC retention time is 755 s.

For `COC(=O)c1ccc2c(=O)n(-c3ccc(OC)cc3)c(N3CCN(c4ccccn4)CC3)nc2c1`, which RP-LC retention time is on record?
Its RP-LC retention time is 1290 s.

For `COCCN1C(=O)CC[C@]2(C(=O)N(C)CCc3ccccn3)CCCC[C@@H]12`, which RP-LC retention time is on record?
The RP-LC retention time was 546 s.

Which RP-LC retention time does the source give for `NC(=O)C1CCN(C2CC(=O)N(c3ccc4c(c3)OCCO4)C2=O)CC1` (stereo unspecified) here?
The RP-LC retention time was 568 s.

With `O=C(NCC(c1cccs1)S(=O)(=O)c1ccc(F)cc1)c1nc2ccccc2s1` (stereo unspecified) as the compound, how does the RP-LC retention time read?
Its RP-LC retention time is 948 s.

With `O=C(Nc1nc2c(Cl)cccc2s1)C1COc2ccccc2O1` (stereo unspecified) as the compound, how does the RP-LC retention time read?
The RP-LC retention time was 983 s.
